Assay results reported in patent US20100317621A1, “BETA-LACTAMASE INHIBITORS” (priority 2007, published 2010).
Converted amounts (≈) assume the structure as drawn.

Assays:
[1] = test system: E. coli expressing the Class A ESBL CTX-M-15; format: cell-based; conditions: in the presence of fixed 8 μg/mL cefotaxime; CAMHB, 16-20 hours at 37° C.
Excerpt: (§1) To determine the ability of test compounds to potentiate the inhibition of the growth of bacterial strains producing beta-lactamase enzymes, classic cell based screening assays were employed. Four bacteria strains producing beta-lactamase enzymes were used: E. coli expressing the Class A Extended Spectrum Beta-Lactamase (ESBL) CTX-M-15, E. coli expressing the Class A ESBL SHV-5, E. cloacae expressing the Class C P99+, and K. pneumoniae expressing the Class A carbapenemase KPC-2. In order to evaluate the ability of test compounds to inhibit beta-lactamase activity, Applicants used a modification of the broth microdilution assay. The assay was conducted in Cation Adjusted Mueller Hinton Broth (CAMHB, BD #212322, BD Diagnostic Systems, Sparks, Md.). Bacteria strains were grown for 3-5 hours in CAMBH broth. All four strains were grown in presence of 50 μg/mL ampicillin to ensure resistance is maintained. In the meantime, test compounds were diluted in DMSO to a 0.1 mg/mL stock. The compounds were added to a microtiter plate and were diluted in 2-fold serial dilutions in CAMHB in a final concentration range of 32 μg/mL to 0.25 μg/mL. An overlay of CAMHB containing a cephalosporin was added to the compounds at a final static concentration of 8 μg/mL. […] Each of these compound plates are made in quadruplicate, one for each bacteria strain. In addition to the titration of test compounds the MICs of a panel of cephalosporins is also tested to ensure the strains are behaving consistently from test to test. Once the test compound and cephalosporin are added the plates can be inoculated. Inocula are conducted according to CLSI broth microdilution method. After inoculation the plates are incubated for 16-20 hours at 37° C. then the Minimal Inhibitory Concentration (MIC) of the test compound is determined visually.
(§2) Using the methodology described above, examples of the current invention were evaluated for their ability to inhibit the growth of β-lactamase producing bacteria in the presence of a β-lactam antibiotic.

[2] = test system: K. pneumoniae expressing the Class A carbapenemase KPC-2; format: cell-based; conditions: in the presence of fixed 8 μg/mL ceftazidime; CAMHB, 16-20 hours at 37° C.
Excerpt: as §1, §2

[3] = test system: E. cloacae expressing the Class C P99+; format: cell-based; conditions: in the presence of fixed 8 μg/mL ceftazidime; CAMHB, 16-20 hours at 37° C.
Excerpt: as §1, §2

[4] = test system: E. coli expressing the Class A ESBL SHV-5; format: cell-based; conditions: in the presence of fixed 8 μg/mL ceftazidime; CAMHB, 16-20 hours at 37° C.
Excerpt: as §1, §2

[5] = target: T1, SHV-5 β-lactamase (Klebsiella pneumoniae, UniProt P0A3M1); assay: biochemical; format: biochemical, Escherichia coli; conditions: crude enzyme extract, 10 min preincubation at 37° C., nitrocefin 100 μM, PBS pH 7.0; read-out: SHV-5 IC50 Range
T1 construct: The β-lactamases were extracted by four cycles of freezing and thawing followed by centrifugation; endogenous in cells; host or cells: Escherichia coli cells containing SHV-5 (crude freeze-thaw extract)
Method: (§3) Isolation of β-lactamases. Crude β-lactamase extracts were prepared from 20 ml overnight cultures with shaking. Escherichia coli cells containing SHV-5 or CTXM-15 and Enterobacter cloacae cells containing P99 were further diluted 10-fold and grown to mid-log phase (OD at 600 nm, 0.5-0.8) in Mueller-Hinton II (MH-II) broth at 37° C. The cells were pelleted at 5000 g, washed and resuspended in 2 mL PBS pH 7.0. The β-lactamases were extracted by four cycles of freezing and thawing followed by centrifugation. β-lactamase activity in the extracts was measured with the chromogenic cephalosporin nitrocefin. The amount of protein in each β-lactamase preparation was determined by the bicinchoninic acid (BCA) assay.
(§4) β-lactamase Inhibition. To determine the level of inhibition of β-lactamase enzymes, compounds were diluted in PBS at pH 7.0 to yield concentrations between 100 and 0.005 μM in microtiter plates. An equal volume of diluted enzyme stock was added, and the plates were incubated at 37° C. for 10 min. Nitrocefin solution was then dispensed as substrate into each well at a final concentration of 100 μM, and the plates were immediately read with the kinetic program at 486 nm for 10 min on the SPECTRAMAX® Plus^384 (high-throughput microplate spectrophotometer; Molecular Devices Corp., Sunnyvale, Calif.). Maximum rates of metabolism were then compared to those in control wells (without inhibitors), and percentages of enzyme inhibition were calculated for each concentration of inhibitor. The concentration of inhibitor needed to reduce the initial rate of hydrolysis of substrate by 50% (IC50) was calculated as the residual activity of β-lactamase at 486 nm using the SoftMax Pro 5.0 software (Molecular Devices Corp.).

[6] = target: T2, CTXM-15 β-lactamase (Escherichia coli, UniProt Q9EXV5); assay: biochemical; format: biochemical; conditions: crude enzyme extract, 10 min preincubation at 37° C., nitrocefin 100 μM, PBS pH 7.0; read-out: CTXM-15 IC50 Range
T2 construct: The β-lactamases were extracted by four cycles of freezing and thawing followed by centrifugation; endogenous in cells; host or cells: Escherichia coli cells containing CTXM-15 (crude freeze-thaw extract)
Method: as §3, §4

[7] = target: T3, P99 AmpC β-lactamase (Enterobacter cloacae, UniProt P05364); assay: biochemical; format: biochemical; conditions: crude enzyme extract, 10 min preincubation at 37° C., nitrocefin 100 μM, PBS pH 7.0; read-out: P99 AmpC IC50 Range
T3 construct: The β-lactamases were extracted by four cycles of freezing and thawing followed by centrifugation; endogenous in cells; host or cells: Enterobacter cloacae cells containing P99 (crude freeze-thaw extract)
Method: as §3, §4

[8] = test system: E. coli expressing the Class A ESBL CTX-M-15; assay: microbe, parasite or virus in culture; format: cell-based; conditions: Escherichia coli, read-out: MIC alone, E. coli CTX-M-15

T3 sequence (P05364 21-381): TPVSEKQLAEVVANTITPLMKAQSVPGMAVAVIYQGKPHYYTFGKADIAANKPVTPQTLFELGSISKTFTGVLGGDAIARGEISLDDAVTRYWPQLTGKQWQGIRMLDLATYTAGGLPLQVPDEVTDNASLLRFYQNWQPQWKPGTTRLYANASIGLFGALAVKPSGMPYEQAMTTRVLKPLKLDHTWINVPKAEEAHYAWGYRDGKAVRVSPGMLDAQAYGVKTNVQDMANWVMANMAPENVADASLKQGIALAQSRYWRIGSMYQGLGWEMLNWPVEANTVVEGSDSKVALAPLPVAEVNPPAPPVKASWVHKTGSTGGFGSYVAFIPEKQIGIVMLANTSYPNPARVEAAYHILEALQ
T1 sequence (P0A3M1 22-286): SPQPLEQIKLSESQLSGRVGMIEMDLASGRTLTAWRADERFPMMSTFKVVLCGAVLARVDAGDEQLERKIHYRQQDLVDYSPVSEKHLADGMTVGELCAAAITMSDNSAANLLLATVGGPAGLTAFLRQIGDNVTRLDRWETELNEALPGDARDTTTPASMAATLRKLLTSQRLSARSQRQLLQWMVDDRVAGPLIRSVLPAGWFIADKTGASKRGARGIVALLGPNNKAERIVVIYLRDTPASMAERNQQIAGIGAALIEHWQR
T2 sequence (Q9EXV5 29-291): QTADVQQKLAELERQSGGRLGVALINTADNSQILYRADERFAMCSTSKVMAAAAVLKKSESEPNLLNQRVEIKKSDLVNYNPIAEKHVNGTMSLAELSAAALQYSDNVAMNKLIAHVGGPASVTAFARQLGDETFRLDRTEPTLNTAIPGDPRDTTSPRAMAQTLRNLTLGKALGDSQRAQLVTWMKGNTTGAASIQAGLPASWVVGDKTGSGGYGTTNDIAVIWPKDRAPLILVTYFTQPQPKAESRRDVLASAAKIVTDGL

SMILES | MIC of example compound, E. coli CTXM-15 + 8 μg/mL TAX [1] | MIC of example compound, K. pneumoniae KPC-2 + 8 μg/mL CAZ [2] | MIC of example compound, E. cloacae P99+ + 8 μg/mL CAZ [3] | MIC of example compound, E. coli SHV-5 + 8 μg/mL CAZ [4] | IC50 [5] | IC50 [6] | IC50 [7] | MIC [8]
O=C(Cc1cccs1)N[C@@H](Cc1ccc(F)c(C(=O)O)c1)B(O)O [Example 21, (1R)-1-(2-thiophene-2-yl-acetylamino)-2-(3-carboxy-4-fluorophenyl)ethyl-1-boronic acid] | C (C represents an MIC of <2 μg/mL) | B (B represents an MIC between 2 and 32 μg/mL) | B (B represents an MIC between 2 and 32 μg/mL) | C (C represents an MIC of <2 μg/mL) | < 100 nM | < 100 nM | 100 to 1000 nM | 
O=C(Cc1cccc(O)c1)N[C@@H](Cc1cccc(C(=O)O)c1)B(O)O [Example 22, (1R)-1-(3-Hydroxyphenylacetylamino)-2-(3-carboxyphenyl)ethyl-1-boronic acid] | B (B represents an MIC between 2 and 32 μg/mL) | B (B represents an MIC between 2 and 32 μg/mL) | B (B represents an MIC between 2 and 32 μg/mL) | C (C represents an MIC of <2 μg/mL) | < 100 nM | < 100 nM | 100 to 1000 nM | 
O=C(Cc1ccsc1)N[C@@H](Cc1cccc(C(=O)O)c1)B(O)O [Example 29, (1R)-1-(2-thiophene-3-yl-acetylamino)-2-(3-carboxyphenyl)ethyl-1-boronic acid] | C (C represents an MIC of <2 μg/mL) | B (B represents an MIC between 2 and 32 μg/mL) | A (A represents an MIC>32 μg/mL) | 8 µg/mL | < 100 nM | 100 to 1000 nM | 100 to 1000 nM | 
NCCOc1cccc(CC(=O)N[C@@H](Cc2cccc(C(=O)O)c2)B(O)O)c1 [Example 30, (1R)-1-{2-[3-(2-Amino-ethoxy)-phenyl]-acetylamino}-2-(3-carboxyphenyl)ethyl-1-boronic acid] | B (B represents an MIC between 2 and 32 μg/mL) | B (B represents an MIC between 2 and 32 μg/mL) | B (B represents an MIC between 2 and 32 μg/mL) | B (B represents an MIC between 2 and 32 μg/mL) | 100 to 1000 nM | < 100 nM | 100 to 1000 nM | 
CO/N=C(\C(=O)N[C@@H]1C(=O)N2C(C(=O)O)=C(COC(C)=O)CS[C@H]12)c1csc(N)n1 [cefotaxime] |  |  |  |  |  |  |  | 1020 µg/mL (≈ 2250 µM)
